According to patent US20180002247A1, “METHODS FOR CHIRAL RESOLUTION OF TROLOX” (BIOELECTRON TECHNOLOGY CORPORATION, priority 2014, published 2018):
In brackets after ≈: the same amount, converted by molar mass.

Assay: Solubility assessment of (R)-Trolox in 12 solvents at 40° C.
Format: physicochemical
Details: for solubility: organic solvent or mixture, thermodynamic from solid
Experimental: (R)-Trolox (97.89% ee, chemical purity>99.99% AUC) (100 mg) was weighed out in 12 different vials. 12 different solvents were added (one volume at a time) to the different vials and the mixture was maintained at 40° C. The volume of each solvent required to dissolve 100 mg of (R)-Trolox was recorded and the solubility was subsequently calculated.

Solubility (in words) (all solvents except for pure water): highly soluble
solubility (solvent 2-MeTHF): 524 mg/mL (≈ 2090 mM)
solubility (solvent 5% water/ACN): 459 mg/mL (≈ 1830 mM)
solubility (solvent 5% water/EtOH): 854 mg/mL (≈ 3410 mM)
solubility (solvent 5% water/IPA): 978 mg/mL (≈ 3910 mM)
solubility (solvent 5% water/MeOH): 1040 mg/mL (≈ 4150 mM)
solubility (solvent ACN): 195 mg/mL (≈ 779 mM)
solubility (solvent EtOAc): 209 mg/mL (≈ 835 mM)
solubility (solvent EtOH): 494 mg/mL (≈ 1970 mM)
solubility (solvent IPA): 523 mg/mL (≈ 2090 mM)
solubility (solvent IPAc): 252 mg/mL (≈ 1010 mM)
solubility (solvent MeOH): 1000 mg/mL (≈ 4010 mM)
Solubility at 40° C. (solvent water): not soluble
Compound: Cc1c(C)c2c(c(C)c1O)CCC(C)(C(=O)O)O2 (racemic) [(R)-Trolox, 6-hydroxy-2,5,7,8-tetramethylchroman-2-carboxylic acid]
